Results as given in patent US20060265776A1, “Viability” (priority 2003, published 2006).
“Also recorded” adds a separate entry of the source.

What was measured:
[1] = system: Arabidopsis thaliana cell suspension cultures; type: cell-based
Protocol: A. thaliana cell cultures were grown as described in example 1. Aliquots of the cell suspension (1.5 mL) were treated with a final concentration of 0, 20, 50, or 100 units/mL of apyrase. […] The dead cells had become buoyant and adhered to the walls of the vials, forming a ring just above the edge of the swirling medium. The ring of cells was sometimes dislodged and fell into the medium, resulting in apyrase-treated cultures having flakes of dead cells at the bottom of the vials.
To quantify the effect of apyrase on cell viability, the ability of the cells to grow and multiply subsequent to treatment was measured after diluting the cultures by over 30 times in fresh medium not containing any additives. This was achieved by transferring the cells treated for 3 days to 50 mL of fresh growth medium and allowing them to grow for a further 4 days. At the end of this period, triplicate 1 mL aliquots were sampled from the cultures and the volume of the cells was measured and expressed as a percentage of the culture volume. The method used to determine the packed cell volume was as follows: 1 mL cell culture aliquots were placed in 1.5 mL microfuge tubes and the cells gently compacted by centrifuging (1000 rpm., 10 minutes) in a swing-out rotor (Grundrotor 11030; Sigma laborzentrifugen GmbH, Oestrode, Germany). The level of the cells was marked on the wall of the tube and the volume of cells determined by measuring the volume of water needed to fill the tube to the marked level. The packed cell volume was expressed as the volume occupied by cells as a percentage of 1000 μL.
In each case the error bars represent the standard deviation.

[2] = system: Arabidopsis thaliana cell suspension cultures; assay: Viability staining with fluorescein diacetate and propidium iodide; type: cell-based; details: apyrase-treated cultures, 3 days
Protocol: The inventors decided to use viability staining to confirm cell death in these cell cultures. To achieve this, […] aliquots were removed from the cultures and the cells resuspended in 0.2M CaCl2 after removal of the growth medium. The aliquots were doubly-stained by incubating for 5 minutes with a final concentration of 25 μg/mL fluorescein diacetate [0.5% (w/v) stock solution in acetone] and 50 μg/mL propidium iodide [10 mg/mL stock solution in phosphate-buffered saline pH 7.4]. […] The viable cells had also excluded propidium iodide, which is non-permeative and can only cross membranes of dead or dying cells. Dead cells had taken up propidium iodide, which binds to DNA, resulting in nuclei emitting a very intense red fluorescence.

[3] = system: Black Mexican sweet corn cells; assay: Cell viability of corn suspension cells; type: cell-based, Zea mays; details: 1 mM ATP, 1 mM AMP-PCP, 100 units/mL apyrase, 200 units/mL hexokinase; 100 mM glucose in culture
[4] = system: Tobacco (Nicotiana tabacum), Arabidopsis, and bean (Phaseolus vulgaris) plants; assay: Leaf infiltration of extracellular ATP depletion systems, whole plants; type: in vivo; details: 0.5 units/μL apyrase, 1.85 units/μL hexokinase plus 100 mM glucose, 1-5 mM AMP-PCP (pH 6.5); ATP (pH 6.5)
Protocol: (§1) Tobacco (Nicotiana tabacum), Arabidopsis, and bean (Phaseolus vulgaris) plants were sown in soil and raised in a growth cabinet with a 16-hour photoperiod at 20° C. and 8 hours of darkness at 15° C. The relative humidity was maintained at 60% and the photon flux density was 250 μmolm^−2 s^−1. […] Only the cotyledons of bean plants were treated. The abaxial surface of a small zone of leaf tissue was treated by infiltrating the apoplast with the solution using a syringe and hypodermic needle. The three test solutions had the following concentrations of either: 0.5 units/μL apyrase, 1.85 units/μL hexokinase plus 100 mM glucose, or 1-5 mM AMP-PCP (pH 6.5).
The concentrations used were the same as defined above unless stated otherwise.

tobacco leaves = assay: Leaf infiltration, tobacco; type: in vivo, Nicotiana tabacum
Protocol: as §1

bean plants = assay: Leaf infiltration, bean; type: in vivo, Phaseolus vulgaris; details: apyrase, hexokinase; 100 mM glucose
Protocol: as §1

apyrase
loss in viability [1]: over 80% | cell death seen in cultures ([1]; 20, 50 or 100 units/mL apyrase, incubated for 3 days): showed a significant frequency of cell death | cell viability with increasing concentration (dose-response), in words ([1]; apyrase 0-100 units/mL, hexokinase 0-200 units/mL with 100 mM glucose, AMP-PCP 0-1.5 mM): progressive decrease in cell viability | dead cells by viability staining [2]: significantly high proportion of cells in the apyrase-treated cell cultures was dead | viability of corn cells [3]: caused significant cell death | necrotic lesions after local leaf infiltration [4]: development of necrotic lesions in the area where the application was made within 2 days of treatment; also recorded: localised necrotic lesions | local tissue death after infiltration of tobacco leaves (tobacco leaves; 1 mM AMP-PCP, 1 mM ATP, apyrase, hexokinase plus glucose): development of localised necrotic lesions | state of tobacco plant after treatment of a leaf (tobacco leaves; 5 mM AMP-PCP or equivalent amount of ATP, after 4 days): Comparable results | necrotic lesions on bean leaves (bean plants): development of necrotic lesions on leaves
